# “Also recorded” adds a separate entry of the source.
# Tests used:
# [1] = Plasma urea concentration after test drinks; type: in vivo, human; conditions: for plasma urea compared to baseline values: healthy control and COPD group, 30.0 mg GLU/kg or 29.8 mg glutamine/kg every 20 min for 4 hours
# Text: The 3 test drinks were studied on different days and in a randomized order using a similar study protocol.
# [2] = Plasma GLU concentration after continuous ingestion of a glutamate enriched drink; type: in vivo, human
# Text: When using a continuous infusion protocol of stable isotopes, plasma glutamate concentrations have to be in steady state condition before metabolic data can be obtained.
# Subsequently, we performed several pilot studies (summary see FIG. 1) in order to obtain the optimal dose of glutamate. Pilot studies included continuous ingestion of a glutamate enriched drink and evaluation of the concentration of glutamate and related amino acids in plasma.
# In the 2nd pilot study, we decided to use the pure form of glutamate to avoid the large sodium content. […] Blood samples were taken to evaluate plasma glutamate level.
# This protocol was used in further studies.
# [3] = GLU appearance in plasma and splanchnic GLU extraction (stable isotope methodology); type: in vivo, human; conditions: young subjects, after start of GLU ingestion
# [4] = system: whole body protein breakdown; assay: Whole body protein breakdown (phenylalanine turnover, stable isotope methodology); type: in vivo, human; conditions: young healthy volunteers, during GLU supplementation
# Method: In the young healthy volunteers, whole body protein and 3-methylhistidine turnover were measured during glutamate supplementation using stable isotope methodology. […] In order to elucidate the contribution of muscle to whole body protein metabolism, the rate of myofibrillar protein breakdown (3-methylhistidine turnover) was simultaneously measured.
# [5] = system: myofibrillar (muscle) protein breakdown; assay: Myofibrillar protein breakdown (3-methylhistidine turnover / rate of appearance); type: in vivo, human; conditions: for 3-methylhistidine rate of appearance in plasma during exercise: submaximal cycle exercise 20 min at 50% maximal workload, GLU versus water
# [6] = system: whole body leucine turnover; assay: Whole body leucine turnover (leucine tracer); type: in vivo, human
# Method: FIG. 11: Whole body leucine rate of appearance gives a reflection of whole body leucine turnover and is the sum of leucine turnover coming from protein breakdown and from other (non-protein) sources.
# (§1) The subjects were measured before and during a submaximal constant work rate cycle test of 20 minutes (at 50% of their maximal workload previously achieved during an incremental exercise test).
# [7] = Plasma lactate response to exercise; type: in vivo, human
# Method: as §1
# [8] = Side effects / tolerance incl. Chinese restaurant syndrome (food tolerance questionnaire); type: in vivo, human; conditions: for side effects / adverse complaints (including Chinese Restaurant syndrome symptoms): COPD patients and healthy control subjects, 6-7 g/hour for 4-6 hours
# Method: In all the pilot studies, the patients and the healthy control subjects in the age ranging from 20 to 80 years were run through a protocol to determine feasibility.
# In the experiments the intake of glutamate is usually in the order of 6-7 g/hour for a period of 4-6 hours meaning a total intake of […].
# Moreover, a placebo (glutamine) was used for comparison.
# [9] = cited from earlier work
smiles,measurement,setting,value
"NC(=O)CC[C@H](N)C(=O)O [GLN, glutamine, reference compound]",plasma urea compared to baseline values,[1],increased
"N[C@@H](CCC(=O)O)C(=O)O [GLU, L-glutamic acid]",time to steady state in GLU concentration after start of ingestion,"[2]; 4 subjects, 30 mg GLU/kg body weight every 20 min (FIG. 2)",≤ 2 h
same,"rise in plasma GLU concentration, COPD group versus control group","[2]; 8 COPD patients vs 8 healthy controls, 30 mg GLU/kg every 20 min",significantly lower
same,plasma GLU level compared to baseline,"[2]; COPD patients and healthy age-matched control subjects (both groups), 30 mg GLU/kg every 20 min, 120 min after start",significantly increased; also recorded: significant increase
same,steady state in plasma glutamate level,"[2]; healthy volunteers, 69.4 mg glutamate/kg body weight every 30 minutes (2.4% solution)",30 min intervals were too long to reach a steady state
same,time to steady state of plasma glutamate concentration,"[2]; healthy young volunteers, 30 mg GLU/kg body weight every 20 min",≤ 120 min
same,increase in the plasma glutamate concentration,"[2]; healthy young volunteers, 30 mg GLU/kg body weight every 20 min (2.4% solution), total 300 mg/kg",about 500%
same,plasma GLU concentration,"[2]; healthy young volunteers, GLU added to carbohydrate (maltodextrin) whey protein meal (carbohydrate:protein:glutamate=5:2:5)",significantly increased to steady state values
same,time to steady state of whole body GLU plasma appearance,[3],≤ 1.5 h
same,whole body protein breakdown rate (phenylalanine turnover),[4],gradual decrease; also recorded: significantly decreased
same,myofibrillar protein breakdown during the first 10 minutes of exercise,"[5]; COPD group, cycle exercise, ingesting glutamate",reduction
same,3-methylhistidine rate of appearance in plasma during exercise,[5]; COPD group,abolished the increase
same,3-methylhistidine rate of appearance in plasma during exercise,"[5]; COPD group, listed as glutamate",diminished
same,myofibrillar protein breakdown (3-methylhistidine turnover),"[5]; young healthy volunteers at rest, in less than one hour after GLU ingestion",reduction; also recorded: decreased
same,plasma urea compared to baseline values,[1],decreased
same,plasma urea concentration after intake,"[1]; healthy young volunteers, GLU with carbohydrate (maltodextrin) protein meal",decreased
same,whole body leucine turnover not related to protein turnover,"[6]; at rest, COPD and control subjects",reduction
same,increase in whole body leucine turnover during exercise,"[6]; cycle exercise 20 min at 50% maximal workload, 30 mg GLU/kg every 20 min versus water, COPD (and control) group",diminished the increase
same,increase in plasma lactate concentration during exercise versus water,[7]; COPD group (text to FIG. 13),lower increase
same,increase in plasma lactate concentration during exercise versus water,[7]; healthy control group (FIG. 13 legend),lower increase
same,CRS effects versus placebo (glutamine),"[8]; 26 healthy volunteers, 30 mg GLU/kg every 20 min",No significant differences
same,number and severity of complaints versus placebo (glutamine),"[8]; 26 healthy volunteers, 30 mg GLU/kg every 20 min, questionnaire until 2 hours after last ingestion",No differences
same,subjects having the symptoms known as Chinese restaurant syndrome,"[8]; 26 healthy volunteers, 30 mg GLU/kg every 20 min, until 2 hours after ingestion",less than 5%
same,side effects / adverse complaints (including Chinese Restaurant syndrome symptoms),[8],none
same,side effects / adverse complaints (including Chinese Restaurant syndrome symptoms),[8]; listed as glutamate,do not occur
"N[C@@H](CCC(=O)O)C(=O)[O-].[Na+] [MSG, monosodium glutamate]",tolerance of the drink,"[8]; healthy volunteers, 3.6% MSG solution, 80.3 mg MSG/kg body weight every 30 minutes",well
same,side effects after high (bolus) dose,"[9]; Graham et al., healthy subjects, bolus MSG",transient headaches
same,plasma GLU concentration versus dose,"[9]; Stegink et al. and Ghezzi et al., healthy volunteers, various concentrations of MSG",increased proportionally to the given dose
same,muscle GLU concentration,"[9]; young healthy men, glutamate provided in excess as MSG",increase
